Paper PMC12040169 (PLOS Biology, 2025)

Experiment: in vitro
Conditions: human, hela cells, % viability

Compound | viability at 28.5 h, 10 µM
CC(C)Nc1cc(OC2CCOC2)ncn1 (stereo not drawn) [CBK115888] | 93.4%
CCC(O)Cn1nc(CCSC)nc1-c1cc(=O)n(C)c2ccccc12 (stereo not drawn) [CBK306596] | 83.6%
Cc1ccc(O)c(NC(=O)c2cccc(S(=O)(=O)N3CCCCC3)c2)c1 [CBK267790] | 83.3%
c1cn(CC2(Cn3ccnc3)COC2)cn1 [CBK021839] | 108%
Cc1csc(C(Cc2cccs2)NC(=O)Cc2ccccn2)n1 (stereo not drawn) [CBK285005] | 94.3%
O=S(=O)(Nc1ccc2[nH]ccc2c1)c1ccc(Br)cc1F [CBK153510] | 88.9%
CSc1ncc(C(=O)N2CCC(N3CCCC(O)C3)CC2)cn1 (stereo not drawn) [CBK307055] | 106%
Cc1ncc(CN(Cc2ccccn2)Cc2ccccc2Cl)n1C [CBK282128] | 97.6%
CCCCCOc1ccc(Nc2ccc(-c3cccc(Cl)c3Cl)cn2)cc1 [CBK036856] | 111%
CC(C)Cn1c(=O)[nH]c2ncc(-c3ccc(C(=O)NC4CCCC4)cc3)nc21 [CBK064551] | 108%
CN(CCC#N)C(=O)c1cc2cc(Cl)ccc2[nH]1 [CBK287956] | 98%
Nc1nnc(SCC(=O)N2CCN(C(c3ccccc3)c3ccccc3)CC2)s1 [CBK266320] | 99.2%
CC(Cc1ccccn1)N(C)C(=O)c1cccc(N2CCCC2=O)c1 (stereo not drawn) [CBK282153] | 104%
O=C(N[C@H]1C2CCCCC2[C@@H]1c1ccccc1)c1cncnc1 (stereo partly drawn) [CBK282949] | 94.3%
COc1ccc2nc(NC(=N)NC(=S)Nc3ccc(Cl)cc3)nc(C)c2c1 [CBK266677] | 88.3%
C=CCN1CCC(C(=O)NC(=O)NCC2COc3ccccc3O2)CC1 (stereo not drawn) [CBK051099] | 84.2%
CCN(Cc1ccc(C#N)cc1F)C(=O)C(NC(=O)OC)C(C)C (stereo not drawn) [CBK306372] | 86.2%
O=C(c1ccncc1)N1CCCn2nc(-c3cccnc3)cc2C1 [CBK288607] | 88.7%
Nc1nnc(Cn2c(-c3nonc3N)nc3ccccc32)s1 [CBK263854] | 117%
O=C(O)c1cccc(NS(=O)(=O)c2ccc(F)cc2F)c1 [CBK155084] | 95.4%
Cc1ccc(Nc2nc(O)ns2)cc1 [CBK026011] | 81%
Cc1c(C)n(CC(O)CNCc2ccco2)c2ccccc12 (stereo not drawn) [CBK263970G] | 97%
CN(CC(=O)O/N=C(\N)c1cccnc1)S(=O)(=O)c1ccccc1 [CBK267684] | 94.3%

Compound | viability at 28.5 h, 10 µM
CC(CC(=O)O)CC(=O)N1CCC2(CC1)NC(=O)Cc1ccccc12 (stereo not drawn) [CBK047281] | 95.3%
Cc1ccc(Oc2ccc(NC(=O)Cn3cnnc3C#N)cc2)cc1 [CBK295612] | 106%
CCc1nc2ccc(C(=O)N3CCNC(=O)C3)cn2c1N(CCC(C)C)CCN(C)C [CBK146255] | 92.4%
Fc1ccc(-c2ccc(Nc3cccnc3)nc2)cc1Cl [CBK037642] | 93%
COc1ccc(NC(=O)NS(=O)(=O)c2sc3ccc(Cl)cc3c2C)cc1OC [CBK156300] | 91.3%
O=C(CSCc1cccc(Cl)c1)Nc1cccnc1 [CBK264114] | 95.9%
Cc1ccn(-c2ccc(N3CCC4(CCOC4)C3)nn2)n1 (stereo not drawn) [CBK306302] | 87.8%
Cc1cc(C[C@@H]2COC[C@H]2NCc2ccc(Cl)cc2)on1 [CBK285402] | 93.3%
CCc1nc2cc(NC(=O)Cn3cc(C)cn3)ccc2n1CC [CBK281608] | 84.9%
O=C(NCc1cccnc1)c1cc2c(ccc3ccccc32)oc1=O [CBK270195] | 95.7%
Cc1cccc(C)c1NC(=O)CC(CN1CCN(Cc2c(C)noc2C)CC1)C(=O)O (stereo not drawn) [CBK286715] | 89.8%
O=C1NCC2(CCN(C(=O)C3CCCC3)CC2)Oc2ccccc21 [CBK282920] | 94.1%
N#Cc1c(NC(=S)NC(=O)c2ccc(-c3cccc([N+](=O)[O-])c3)o2)sc2c1CCCC2 [CBK268471] | 92%
COc1cccc2c3c([nH]c12)C1(CCN(CCOc2ccccc2)CC1)N(C=O)CC3 [CBK039423] | 112%
COc1cc(S(=O)(=O)NCc2ccc3c(c2)OCO3)c(OC)cc1Cl [CBK264972] | 97.1%
Cc1nc2ccc(C(=O)N3CCN(C)CC3)cn2c1N(C)C(=O)CCc1ccccc1 [CBK146786] | 95.3%
CCOc1cc(CNCc2ccccn2)cc(Cl)c1OCC [CBK268516C] | 106%
CN(CC(=O)N1CCCCC1)S(=O)(=O)c1cc(Cl)ccc1Cl [CBK091826] | 78.9%
CCN(CC)C(=O)c1sc(NC(=O)c2cc(-c3ccncc3)nc3c(C)cccc23)c(C#N)c1C [CBK267771] | 93.6%
CC(C)CN(Cc1ccc2c(c1)OCO2)C(=O)NCc1ccc2c(c1)OCO2 [CBK159071] | 96.4%
COc1ccc2[nH]c3c(c2c1)CCNC31CCN(Cc2ccc(S(C)(=O)=O)cc2)CC1 [CBK039753] | 88.8%
O=C(Cn1c2ccccc2n2ncnc12)c1ccc(-c2ccccc2)cc1 [CBK263097] | 106%
Cc1ccc(N(CC(=O)Nc2ccc(C)cc2C)S(=O)(=O)N2CCCC2)cc1 [CBK265998] | 110%

Compound | viability at 28.5 h, 10 µM
Cc1ccccc1C1(O)CCN(C(=O)C(c2cccs2)c2cccs2)CC1 [CBK286483] | 106%
CN(CC(=O)O)S(=O)(=O)c1ccc2c(c1)OCCO2 [CBK263904] | 95.8%
O=C(NCCCn1ccnc1)c1cc(-c2ccccc2Cl)nc2ccccc12 [CBK262656] | 95.2%
CCCN1C[C@@H](O)C[C@H]2[C@H](O)[C@@H]1c1ccccc1N2C(=O)OC [CBK007809] | 91.8%
O=C(NCC1CCCO1)C1CCN(C(=O)c2cccc(F)c2)CC1 (stereo not drawn) [CBK304633] | 90.5%
Cc1ccc(C(NC(=O)Cn2ccnc2)c2ccncc2)cc1C (stereo not drawn) [CBK281591] | 87.4%
O=C(O)CCCCN1C(=O)c2ccccc2S1(=O)=O [CBK287189] | 84.8%
Cc1ccc2c(c1)cc(C)c1nn(CC(=O)N3CCCCC3)c(=O)n12 [CBK283870] | 81.6%
CCN(CC(C)C#N)C(=O)c1nnn(-c2ccc3ncccc3c2)c1C (stereo not drawn) [CBK305292] | 86.3%
c1ccc(-c2cc(CC3(NCc4cc5ccccc5o4)COC3)no2)nc1 [CBK289239] | 93.4%
Cc1ccc(/C=C/C(=O)N2CCC3(CC2)CC(=O)c2cc(Cl)ccc2O3)cc1 [CBK156439] | 95.1%
CC(CC(=O)NC1(C#Cc2nccs2)CCCCC1)n1ccnc1 (stereo not drawn) [CBK284746] | 99.5%
Cc1cnc(CNS(=O)(=O)c2ccc(F)cc2)cn1 [CBK050489] | 107%
Cc1ccc(CSCCNS(=O)(=O)c2cccc([N+](=O)[O-])c2)cc1 [CBK267864] | 108%
CS(=O)(=O)CCC(C(=O)O)N1C(=O)c2ccc(C(=O)O)cc2C1=O (stereo not drawn) [CBK265719] | 94.5%
O=C(Nc1ccccc1N1CCNCC1)C1(c2ccccc2)CCCCC1 [CBK028281T] | 99.9%
O=C(Nc1ccc2c(c1)OCO2)c1cccc(I)c1 [CBK058308] | 85.7%
COc1ccc2c(c1)C1(CC(=O)N(C)C1=O)C(=O)N2CCCC(=O)O (stereo not drawn) [CBK076109] | 77.3%
CN(C)CC1CN(c2nc(-c3ccncc3)nc3c2CCC3)CCO1 (stereo not drawn) [CBK305824] | 83%
CN1CCC(N2CCN(C(=O)Nc3ccc4c(c3)OCCO4)CC2)CC1 [CBK155898] | 87%
Cc1ccc(S(=O)(=O)Cc2ccc(C(=O)Nc3cccc(-c4cnc5ccccc5n4)c3)cc2)cc1 [CBK268589] | 89.3%
Cc1nnc(SCC(=O)N2CCN(Cc3ccccc3)CC2)s1 [CBK267196] | 96%
COCC(=O)N1CCC(Oc2ccc3ncccc3c2)(C(=O)O)CC1 [CBK307340] | 103%

Compound | viability at 28.5 h, 10 µM
O=C(O)CCC(=O)NCC(=O)c1ccc(F)cc1 [CBK057384] | 76.6%
COc1cccc(NC(=O)CN2CCC(NC(=O)c3cccs3)CC2)c1 [CBK305800] | 96.3%
O=C(NCCn1nc(-c2ccco2)ccc1=O)C1CCCC1 [CBK283707] | 92%
CCOC(=O)c1ccc(NC(=O)N2CCC3(CC2)NC(=O)Cc2ccccc23)cc1 [CBK047362] | 107%
NC(=O)c1ccc(-c2cncc(N3CCN(CCO)CC3)n2)cc1 [CBK065392] | 96.5%
COc1cc(OC)cc(C(=O)Nc2nnc(C(F)(F)F)s2)c1 [CBK099828] | 88.7%
COCCNC(=O)c1ccc(-c2ccccc2)nc1NCC1CC1 [CBK106242] | 92%
O=C(CCN1CCCCC1)Nc1ccc2c(=O)n3c(nc2c1)/C(=C/c1ccccc1)CC3 [CBK017786] | 94.1%
O=C(O)/C(=C\c1ccccc1)NC(=O)c1cccc([N+](=O)[O-])c1 [CBK263348] | 96.3%
CC(C)[C@H]1CN(Cc2ccco2)CCN1C(=O)N1CCOCC1 [CBK284273] | 82.2%
CN(C)C(=O)CCNC(=O)c1ccc2c(c1)nc(N1CC[C@H](O)C1)n2C [CBK306671] | 92.4%
O=C(CN1CCCCC1)Nc1ccc(NC(=O)CN2CCCCC2)cc1 [CBK265421] | 86.3%
COc1cccc(N2N=C3NNC(N)=C3N2)c1 [CBK093665] | 83.7%
Cc1nn(C)c(C)c1NC(=O)c1ccc(S(=O)(=O)N(C)C)cc1 [CBK266059] | 93.8%
O=C(c1cnccn1)N1CCN(c2nc3c(F)cccc3s2)CC1 [CBK287722] | 91.6%
CCCc1cn(C2CCN(c3cc(-n4cc(C)cn4)ncn3)CC2)nn1 [CBK307127] | 104%
O=C(NCc1ccc(Cl)cc1)N1CCN(CCc2ccccc2)CC1 [CBK158922] | 90.7%
OCc1ccnc2ccccc12 [CBK001746] | 87.4%
CC(Cn1cncn1)C(=O)N1CCCCC1CCc1ccccc1 (stereo not drawn) [CBK282265] | 109%
OC1(c2ccccc2)CCNCC1 [CBK012290] | 101%
CCCCc1ccc(N)c(C)c1 [CBK164057C] | 89.9%
